What was measured:
[1] = tested on: U251MG glioblastoma cells; assay: CyQuant cell viability/proliferation assay, U251MG; format: cell-based, human; design: key to Activity against U251: +, active; −, no activity; +/−, poorly active; settings: for Activity against U251: Table 1 grade, Table 1/FIG. 2 compound numbering; for Inhibitory potency compared with 22 (CyQuant): 72-h treatment, FIG. 10, synthetic derivatives of 22
Procedure: The cell viability assay was performed as previously reported (Zhang X, et al. (2010)). Briefly, a 10 millimolar concentration stock solution in dimethylsulfoxide (DMSO) of the tested molecule was first prepared. Next, the stock solution was diluted down to various working solutions in water. Thus, a formulation of the tested compound in a DMSO/water mixture was used to test for cell viability. (A novel small-molecule disrupts STAT3 SH2 domainphosphotyrosine interactions and STAT3-dependent tumor processes, Biochem Pharmacol 79:1398-1409; Zhao W, Jaganathan S, & Turkson J (2010), A cell-permeable STAT3 SH2 domain mimetic inhibits STAT3 activation and induces antitumor cell effects in vitro. J Biol Chem. 285:35855-35865). Cells (U251MG, MDA-MB-231 or NIH3T3) were obtained from ATCC (Manassas, Va.) and were cultured in 96-well plates at 2,000 cells per well for 24 h and were treated with compounds (5 micromolar concentration) for 72 h. Cell viabilty was determined using CyQuant assay, according to the manufacturer's (Invitrogen, CA, USA) instructions. Relative viability of the treated cells was normalized to the DMSO-treated control cells.

[2] = tested on: pY705STAT3 in U251MG or MDA-MB-231 cells; assay: Immunoblotting of pY705STAT3 in treated tumor cells; settings: 5 micromolar, 0-24 h; U251MG or MDA-MB-231; Table 1/FIG. 2 numbering

Row | Structure (SMILES) | Activity against U251 [1] | Effect on pY705STAT3 / STAT3 activity (immunoblot), in words [2] | Inhibitory potency compared with 22 (CyQuant) [1]
1 | CC=C(C)C(=O)OC1CC(C)C2(OC)CCC(C)(C=C3OC(=O)C(CO)=C31)O2 (centres unmarked) [Compound 17] | − |  | 
2 | CC(=CCO)C(=O)OC1CC(C)C2(O)CCC(C)(C=C3OC(=O)C(CO)=C31)O2 (centres unmarked) [Compound 21] | − |  | 
3 | CCC(C)C(=O)OCC1=C2/C(=C\C3(C)CCC(O)(O3)[C@H](C)C[C@@H]2O)OC1=O (stereo partly drawn) [zmm-1-18, ((4S,6R,E)-4,7-dihydroxy-6,10-dimethyl-2-oxo-2,4,5,6,7,8,9,10-octahydro-7,10-epoxycyclodeca[b]furan-3-yl)methyl 2-methylbutanoate] |  | showed little effects on pY705STAT3 | 
4 | C[C@@H]1C[C@H](O)C2=C(COC(=O)C=Cc3ccccc3)C(=O)O/C2=C/C2(C)CCC1(O)O2 (stereo partly drawn) [zmm-1-19, ((4S,6R,E)-4,7-dihydroxy-6,10-dimethyl-2-oxo-2,4,5,6,7,8,9,10-octahydro-7,10-epoxycyclodeca[b]furan-3-yl)methyl cinnamate] |  | inhibited pY705STAT3 | retained the inhibitory potency as 22
5 | CC(C)=CCCC(C)=CC(=O)OCC1=C2/C(=C\C3(C)CCC(O)(O3)[C@H](C)C[C@@H]2O)OC1=O (stereo partly drawn) [zmm-1-20, ((4S,6R,E)-4,7-dihydroxy-6,10-dimethyl-2-oxo-2,4,5,6,7,8,9,10-octahydro-7,10-epoxycyclodeca[b]furan-3-yl)methyl 3,7-dimethylocta-2,6-dienoate] |  | inhibited pY705STAT3 | retained the inhibitory potency as 22
6 | CC(C)=CC(=O)OCC1=C2/C(=C\C3(C)CCC(O)(O3)[C@H](C)C[C@@H]2O)OC1=O (stereo partly drawn) [zmm-1-21, ((4S,6R,E)-4,7-dihydroxy-6,10-dimethyl-2-oxo-2,4,5,6,7,8,9,10-octahydro-7,10-epoxycyclodeca[b]furan-3-yl)methyl 3-methyl but-2-enoate] |  | showed little effects on pY705STAT3 | 
7 | CC(C)=CCCC(C)CC(=O)OCC1=C2/C(=C\C3(C)CCC(O)(O3)[C@H](C)C[C@@H]2O)OC1=O (stereo partly drawn) [zmm-1-22, ((4S,6R,E)-4,7-dihydroxy-6,10-dimethyl-2-oxo-2,4,5,6,7,8,9,10-octahydro-7,10-epoxycyclodeca[b]furan-3-yl)methyl 3,7-dimethyloct-6-enoate] |  | inhibited pY705STAT3 | retained the inhibitory potency as 22
8 | C/C=C(\C)C(=O)O[C@H]1C[C@@H](C)C2(OC)CCC(C)(/C=C3/OC(=O)C(COC(=O)C=Cc4ccccc4)=C31)O2 (stereo partly drawn) [zmm-1-72, (4S,6R,E)-3-((cinnamoyloxy)methyl)-7-methoxy-6,10-dimethyl-2-oxo-2,4,5,6,7,8,9,10-octahydro-7,10-epoxycyclodeca[b]furan-4-yl(E)-2-methylbut-2-enoate] |  |  | retained the inhibitory potency as 22
9 | C[C@@H]1C[C@H](O)C2=C(COC(=O)/C=C/c3ccc(C(F)(F)F)cc3)C(=O)O/C2=C/C2(C)CCC1(O)O2 (some centres unmarked) [zmm-1-79] |  |  | retained the inhibitory potency as 22
10 | CCCC(CCC)C(=O)OCC1=C2/C(=C\C3(C)CCC(O)(O3)[C@H](C)C[C@@H]2O)OC1=O (some centres unmarked) [zmm-1-80] |  |  | retained the inhibitory potency as 22
11 | C[C@@H]1C[C@H](O)C2=C(COC(=O)CCc3ccccc3)C(=O)O/C2=C/C2(C)CCC1(O)O2 (stereo partly drawn) [zmm-1-82, ((4S,6R,E)-4,7-dihydroxy-6,10-dimethyl-2-oxo-2,4,5,6,7,8,9,10-octahydro-7,10-epoxycyclodeca[b]furan-3-yl)methyl 3-phenylpropanoate] |  |  | retained the inhibitory potency as 22

Source: patent US10800790B2, “Sesquiterpenoid STAT3 inhibitors” (University of Hawaii, priority 2013, dated 2020)
